Results taken from PubChem BioAssay (NCI).
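Tested at 5 concentrations; 48 h exposure; 96-well plates; endpoints linearly interpolated, else capped at highest concentration. The concentration for 50% growth inhibition is given as GI50. TGI marks complete inhibition of growth.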

Legend:
Assay in all cases: NCI anticancer screen, dose series, 48 h
786-0 renal = test system: 786-0 renal
A498 renal = test system: A498 renal
A549 NSCLC = test system: A549 NSCLC
ACHN renal = test system: ACHN renal
BT-549 breast = test system: BT-549 breast
CAKI-1 renal = test system: CAKI-1 renal
CCRF-CEM leukemia = test system: CCRF-CEM leukemia
COLO 205 colon = test system: COLO 205 colon
DU-145 prostate = test system: DU-145 prostate
EKVX NSCLC = test system: EKVX NSCLC
HCC-2998 colon = test system: HCC-2998 colon
HCT-116 colon = test system: HCT-116 colon
HCT-15 colon = test system: HCT-15 colon
HL-60(TB) leukemia = test system: HL-60(TB) leukemia
HOP-62 NSCLC = test system: HOP-62 NSCLC
HOP-92 NSCLC = test system: HOP-92 NSCLC
HS 578T breast = test system: HS 578T breast
HT29 colon = test system: HT29 colon
IGROV1 ovarian = test system: IGROV1 ovarian
K-562 leukemia = test system: K-562 leukemia
KM12 colon = test system: KM12 colon
LOX IMVI melanoma = test system: LOX IMVI melanoma
M14 melanoma = test system: M14 melanoma
MALME-3M melanoma = test system: MALME-3M melanoma
MCF7 breast = test system: MCF7 breast
MDA-MB-231 breast = test system: MDA-MB-231 breast
MDA-MB-435 = test system: MDA-MB-435
MOLT-4 leukemia = test system: MOLT-4 leukemia
NCI-H226 lung = test system: NCI-H226 lung
NCI-H23 lung = test system: NCI-H23 lung
NCI-H460 lung = test system: NCI-H460 lung
NCI-H522 lung = test system: NCI-H522 lung
NCI/ADR-RES ovarian = test system: NCI/ADR-RES ovarian
OVCAR-3 ovarian = test system: OVCAR-3 ovarian
OVCAR-4 ovarian = test system: OVCAR-4 ovarian
OVCAR-5 ovarian = test system: OVCAR-5 ovarian
OVCAR-8 ovarian = test system: OVCAR-8 ovarian
PC-3 prostate = test system: PC-3 prostate
RPMI-8226 leukemia = test system: RPMI-8226 leukemia
RXF 393 renal = test system: RXF 393 renal
SF-268 CNS = test system: SF-268 CNS
SF-295 CNS = test system: SF-295 CNS
SF-539 CNS = test system: SF-539 CNS
SK-MEL-2 melanoma = test system: SK-MEL-2 melanoma
SK-MEL-28 melanoma = test system: SK-MEL-28 melanoma
SK-MEL-5 melanoma = test system: SK-MEL-5 melanoma
SK-OV-3 ovarian = test system: SK-OV-3 ovarian
SN12C renal = test system: SN12C renal
SNB-19 CNS = test system: SNB-19 CNS
SNB-75 CNS = test system: SNB-75 CNS
SR leukemia = test system: SR leukemia
SW-620 colon = test system: SW-620 colon
T-47D breast = test system: T-47D breast
TK-10 renal = test system: TK-10 renal
U251 CNS = test system: U251 CNS
UACC-257 melanoma = test system: UACC-257 melanoma
UACC-62 melanoma = test system: UACC-62 melanoma
UO-31 renal = test system: UO-31 renal

How did the GI50 (786-0 renal) turn out when `CCC(=O)Nc1cc(Nc2cc(NC3CC3)n3ncc(C#N)c3n2)ccc1C` was run?
The GI50 was 3.46 µM.

And the TGI (786-0 renal)?
The TGI was 43.5 µM.

And the GI50 (A498 renal)?
Its GI50 is 0.0965 µM.

And the TGI (A498 renal)?
The TGI was 1.16 µM.

And the GI50 (A549 NSCLC)?
The GI50 was 1.8 µM.

And the TGI (A549 NSCLC)?
The TGI was 17.3 µM.

And the GI50 (ACHN renal)?
Its GI50 is 1.67 µM.

And the TGI (ACHN renal)?
The TGI was 15.6 µM.

And the GI50 (BT-549 breast)?
Its GI50 is 1.11 µM.

What about the TGI (BT-549 breast) of the same compound?
The TGI was 7.45 µM.

And the GI50 (CAKI-1 renal)?
The GI50 was 0.43 µM.

What about the TGI (CAKI-1 renal) of the same compound?
Its TGI is 3.29 µM.

What about the GI50 (CCRF-CEM leukemia) of the same compound?
The GI50 was 1.68 µM.

And the TGI (CCRF-CEM leukemia)?
The TGI was greater than 100 µM.

What about the GI50 (COLO 205 colon) of the same compound?
The GI50 was 0.981 µM.

What about the TGI (COLO 205 colon) of the same compound?
The TGI was 16.3 µM.

And the GI50 (DU-145 prostate)?
Its GI50 is 3.96 µM.

And the TGI (DU-145 prostate)?
The TGI was 73.3 µM.

What about the GI50 (EKVX NSCLC) of the same compound?
Its GI50 is 1.16 µM.

What about the TGI (EKVX NSCLC) of the same compound?
Its TGI is 45 µM.

What about the GI50 (HCC-2998 colon) of the same compound?
Its GI50 is 2.46 µM.

And the TGI (HCC-2998 colon)?
Its TGI is 18.9 µM.

And the GI50 (HCT-116 colon)?
The GI50 was 0.737 µM.

And the TGI (HCT-116 colon)?
The TGI was 12 µM.

What about the GI50 (HCT-15 colon) of the same compound?
The GI50 was 1.25 µM.

What about the TGI (HCT-15 colon) of the same compound?
Its TGI is 29.6 µM.

And the GI50 (HL-60(TB) leukemia)?
The GI50 was 0.6 µM.

And the TGI (HL-60(TB) leukemia)?
Its TGI is 12.3 µM.

And the GI50 (HOP-62 NSCLC)?
The GI50 was 1.84 µM.

What about the TGI (HOP-62 NSCLC) of the same compound?
Its TGI is 25.7 µM.

What about the GI50 (HOP-92 NSCLC) of the same compound?
Its GI50 is 0.449 µM.

And the TGI (HOP-92 NSCLC)?
The TGI was 6.39 µM.

And the GI50 (HS 578T breast)?
The GI50 was 0.216 µM.

What about the TGI (HS 578T breast) of the same compound?
The TGI was 1.03 µM.

What about the GI50 (HT29 colon) of the same compound?
The GI50 was 2.18 µM.

And the TGI (HT29 colon)?
Its TGI is greater than 100 µM.

What about the GI50 (IGROV1 ovarian) of the same compound?
Its GI50 is 1.27 µM.

And the TGI (IGROV1 ovarian)?
The TGI was 6.29 µM.

What about the GI50 (K-562 leukemia) of the same compound?
Its GI50 is 1.1 µM.

And the TGI (K-562 leukemia)?
The TGI was greater than 100 µM.

What about the GI50 (KM12 colon) of the same compound?
The GI50 was 1.81 µM.

And the TGI (KM12 colon)?
The TGI was 47 µM.

What about the GI50 (LOX IMVI melanoma) of the same compound?
Its GI50 is 1.57 µM.

And the TGI (LOX IMVI melanoma)?
The TGI was 12.9 µM.

And the TGI (M14 melanoma)?
The TGI was 12.5 µM.

And the GI50 (MALME-3M melanoma)?
Its GI50 is 2.2 µM.

And the TGI (MALME-3M melanoma)?
Its TGI is 69.3 µM.

And the GI50 (MCF7 breast)?
The GI50 was 0.421 µM.

And the TGI (MCF7 breast)?
The TGI was 10.7 µM.

And the GI50 (MDA-MB-231 breast)?
The GI50 was 1.63 µM.

And the TGI (MDA-MB-231 breast)?
The TGI was 23.3 µM.

What about the GI50 (MDA-MB-435) of the same compound?
Its GI50 is 2.06 µM.

And the TGI (MDA-MB-435)?
Its TGI is 30.7 µM.

And the GI50 (MOLT-4 leukemia)?
Its GI50 is 3.93 µM.

And the TGI (MOLT-4 leukemia)?
Its TGI is 52.2 µM.

What about the GI50 (NCI-H226 lung) of the same compound?
Its GI50 is 1.51 µM.

And the TGI (NCI-H226 lung)?
The TGI was 16.6 µM.

And the GI50 (NCI-H23 lung)?
The GI50 was 1.12 µM.

And the TGI (NCI-H23 lung)?
Its TGI is 14.9 µM.

What about the GI50 (NCI-H460 lung) of the same compound?
Its GI50 is 0.772 µM.

What about the TGI (NCI-H460 lung) of the same compound?
Its TGI is 12.3 µM.

And the GI50 (NCI-H522 lung)?
Its GI50 is 2.48 µM.

What about the TGI (NCI-H522 lung) of the same compound?
The TGI was 27.1 µM.

And the GI50 (NCI/ADR-RES ovarian)?
Its GI50 is 2.99 µM.

What about the TGI (NCI/ADR-RES ovarian) of the same compound?
Its TGI is 30.3 µM.

What about the GI50 (OVCAR-3 ovarian) of the same compound?
The GI50 was 1.1 µM.

And the TGI (OVCAR-3 ovarian)?
The TGI was 14.6 µM.

And the GI50 (OVCAR-4 ovarian)?
Its GI50 is 1.66 µM.

What about the TGI (OVCAR-4 ovarian) of the same compound?
Its TGI is 67.1 µM.

What about the GI50 (OVCAR-5 ovarian) of the same compound?
Its GI50 is 0.955 µM.

And the TGI (OVCAR-5 ovarian)?
The TGI was 33 µM.

And the GI50 (OVCAR-8 ovarian)?
Its GI50 is 3.63 µM.

What about the TGI (OVCAR-8 ovarian) of the same compound?
Its TGI is greater than 100 µM.

What about the GI50 (PC-3 prostate) of the same compound?
Its GI50 is 1.73 µM.

What about the TGI (PC-3 prostate) of the same compound?
Its TGI is 23.3 µM.

What about the GI50 (RPMI-8226 leukemia) of the same compound?
The GI50 was 1.77 µM.

What about the TGI (RPMI-8226 leukemia) of the same compound?
The TGI was 17.6 µM.

And the GI50 (RXF 393 renal)?
The GI50 was 3.29 µM.

And the TGI (RXF 393 renal)?
The TGI was 15.5 µM.

What about the GI50 (SF-268 CNS) of the same compound?
Its GI50 is 2.32 µM.

What about the TGI (SF-268 CNS) of the same compound?
The TGI was 57.4 µM.

What about the GI50 (SF-295 CNS) of the same compound?
Its GI50 is 2.34 µM.

What about the TGI (SF-295 CNS) of the same compound?
The TGI was 14.8 µM.

What about the GI50 (SF-539 CNS) of the same compound?
Its GI50 is 1.81 µM.

What about the TGI (SF-539 CNS) of the same compound?
Its TGI is 46.9 µM.

And the GI50 (SK-MEL-2 melanoma)?
Its GI50 is 2.65 µM.

And the TGI (SK-MEL-2 melanoma)?
The TGI was 18.6 µM.

And the GI50 (SK-MEL-28 melanoma)?
Its GI50 is 4.02 µM.

And the TGI (SK-MEL-28 melanoma)?
The TGI was greater than 100 µM.

What about the GI50 (SK-MEL-5 melanoma) of the same compound?
The GI50 was 1.6 µM.

And the TGI (SK-MEL-5 melanoma)?
The TGI was 9.15 µM.

And the GI50 (SK-OV-3 ovarian)?
The GI50 was 1.6 µM.

What about the TGI (SK-OV-3 ovarian) of the same compound?
Its TGI is 9.04 µM.

What about the GI50 (SN12C renal) of the same compound?
Its GI50 is 3.16 µM.

What about the TGI (SN12C renal) of the same compound?
Its TGI is greater than 100 µM.

And the GI50 (SNB-19 CNS)?
Its GI50 is 1.77 µM.

What about the TGI (SNB-19 CNS) of the same compound?
The TGI was greater than 100 µM.

What about the GI50 (SNB-75 CNS) of the same compound?
The GI50 was 0.0521 µM.

What about the TGI (SNB-75 CNS) of the same compound?
Its TGI is 0.974 µM.

And the GI50 (SR leukemia)?
Its GI50 is 1.78 µM.

And the TGI (SR leukemia)?
Its TGI is greater than 100 µM.

And the GI50 (SW-620 colon)?
Its GI50 is 1.28 µM.

What about the TGI (SW-620 colon) of the same compound?
The TGI was 19 µM.

And the GI50 (T-47D breast)?
Its GI50 is 1.05 µM.

And the TGI (T-47D breast)?
The TGI was 9.87 µM.

What about the GI50 (TK-10 renal) of the same compound?
The GI50 was 0.987 µM.

What about the TGI (TK-10 renal) of the same compound?
Its TGI is 7.52 µM.

And the GI50 (U251 CNS)?
The GI50 was 0.94 µM.

What about the TGI (U251 CNS) of the same compound?
Its TGI is greater than 100 µM.

What about the GI50 (UACC-257 melanoma) of the same compound?
Its GI50 is 1.77 µM.

What about the TGI (UACC-257 melanoma) of the same compound?
The TGI was 53.6 µM.

And the GI50 (UACC-62 melanoma)?
Its GI50 is 1.22 µM.

What about the TGI (UACC-62 melanoma) of the same compound?
The TGI was 12.1 µM.

And the GI50 (UO-31 renal)?
The GI50 was 2.09 µM.

And the TGI (UO-31 renal)?
Its TGI is 13.7 µM.
